Measured values reported in ChEMBL document CHEMBL3885881, “DrugMatrix”.

Organism: Rattus norvegicus
Test: DrugMatrix - Regimen: Daily Repeat
Format: toxicity, organism-based, Sprague-Dawley
Set-up: regimen Daily Repeat, gender Male, age 6-8 weeks
Settings: in vivo, po, route oral GAVAGE, […]; for ABSOLUTE BASOPHIL / ABSOLUTE EOSINOPHIL / ABSOLUTE LYMPHOCYTE / ABSOLUTE MONOCYTE / ABSOLUTE SEGMENTED NEUTROPHIL / BASOPHIL / EOSINOPHIL / ERYTHROCYTE COUNT / HEMATOCRIT / HEMOGLOBIN / LEUKOCYTE COUNT / LYMPHOCYTE / MEAN CORPUSCULAR HEMOGLOBIN / MEAN CORPUSCULAR HEMOGLOBIN CONCENTRATION / MEAN CORPUSCULAR VOLUME / MONOCYTE / NEUTROPHIL / NUCLEATED RED BLOOD CELLS / PLATELET COUNT: tissue Blood; for ALANINE AMINOTRANSFERASE / ALBUMIN / ALKALINE PHOSPHATASE / ASPARTATE AMINOTRANSFERASE / BLOOD UREA NITROGEN / CARBON DIOXIDE / CHLORIDE / CHOLESTEROL / CREATINE PHOSPHOKINASE / CREATININE / GLUCOSE / LACTATE DEHYDROGENASE / LIPASE / PHOSPHORUS / POTASSIUM / SODIUM / TOTAL BILIRUBIN / TOTAL PROTEIN / URIC ACID: tissue Plasma
[1] = 0 mg/kg, 72 h, dose level Control, time 3 day
[2] = 0 mg/kg, 120 h, dose level Control, time 5 day
[3] = 50 mg/kg, 72 h, dose level Low, time 3 day

With `Oc1ncnc2[nH]ncc12` [ALLOPURINOL] the “ABSOLUTE BASOPHIL” value [1] was 0 CELLS/uL, the “ABSOLUTE EOSINOPHIL” value [1] was 0 CELLS/uL and the “ABSOLUTE LYMPHOCYTE” value [1] was 14687.67 CELLS/uL. For the same compound, the “ABSOLUTE MONOCYTE” value [1] was 164 CELLS/uL, the “ABSOLUTE SEGMENTED NEUTROPHIL” value [1] was 1748.33 CELLS/uL and the BASOPHIL [1] was 0%. The EOSINOPHIL [1] was 0%, the “ERYTHROCYTE COUNT” value [1] was 5.51 x10E6/uL and the HEMATOCRIT [1] was 33.68%. The HEMOGLOBIN [1] was 13.4 G/DL, the “LEUKOCYTE COUNT” value [1] was 16.6 x10E3/uL and the LYMPHOCYTE [1] was 88.83%. The “MEAN CORPUSCULAR HEMOGLOBIN” value [1] was 24.47 pg, the “MEAN CORPUSCULAR HEMOGLOBIN CONCENTRATION” value [1] was 39.82 G/DL and the “MEAN CORPUSCULAR VOLUME” value [1] was 61.23 fL. The MONOCYTE [1] was 0.83%, the NEUTROPHIL [1] was 10.33% and the “NUCLEATED RED BLOOD CELLS” value [1] was 0 /100WBC. The “PLATELET COUNT” value [1] was 1329.67 x10E3/uL, the “ALANINE AMINOTRANSFERASE” value [1] was 61.33 u/L and the ALBUMIN [1] was 4.18 G/DL. The “ALKALINE PHOSPHATASE” value [1] was 332.5 u/L, the “ASPARTATE AMINOTRANSFERASE” value [1] was 98.33 u/L and the “BLOOD UREA NITROGEN” value [1] was 15.83 mg/dL. For the same compound, the “CARBON DIOXIDE” value [1] was 27.83 mmol/L, the CHLORIDE [1] was 100 MEQ/L and the CHOLESTEROL [1] was 76.17 mg/dL. For the same compound, the “CREATINE PHOSPHOKINASE” value [1] was 729.17 u/L, the CREATININE [1] was 0.21 mg/dL and the GLUCOSE [1] was 151.83 mg/dL. For the same compound, the “LACTATE DEHYDROGENASE” value [1] was 484.67 u/L, the LIPASE [1] was 10 u/L and the PHOSPHORUS [1] was 11.3 mg/dL. For the same compound, the POTASSIUM [1] was 6.1 MEQ/L, the SODIUM [1] was 142.9 MEQ/L and the “TOTAL BILIRUBIN” value [1] was 0.23 mg/dL. For the same compound, the “TOTAL PROTEIN” value [1] was 5.68 G/DL, the “URIC ACID” value [1] was 1.75 mg/dL and the “ABSOLUTE BASOPHIL” value [2] was 0 CELLS/uL. For the same compound, the “ABSOLUTE EOSINOPHIL” value [2] was 58.67 CELLS/uL, the “ABSOLUTE LYMPHOCYTE” value [2] was 15950.83 CELLS/uL and the “ABSOLUTE MONOCYTE” value [2] was 172.5 CELLS/uL. For the same compound, the “ABSOLUTE SEGMENTED NEUTROPHIL” value [2] was 2551.33 CELLS/uL, the BASOPHIL [2] was 0% and the EOSINOPHIL [2] was 0.33%. The “ERYTHROCYTE COUNT” value [2] was 5.5 x10E6/uL, the HEMATOCRIT [2] was 34.05% and the HEMOGLOBIN [2] was 13.42 G/DL. For the same compound, the “LEUKOCYTE COUNT” value [2] was 18.73 x10E3/uL, the LYMPHOCYTE [2] was 84.5% and the “MEAN CORPUSCULAR HEMOGLOBIN” value [2] was 24.42 pg. For the same compound, the “MEAN CORPUSCULAR HEMOGLOBIN CONCENTRATION” value [2] was 39.42 G/DL, the “MEAN CORPUSCULAR VOLUME” value [2] was 61.97 fL and the MONOCYTE [2] was 1%. The NEUTROPHIL [2] was 14.17%, the “NUCLEATED RED BLOOD CELLS” value [2] was 0.33 /100WBC and the “PLATELET COUNT” value [2] was 1143.17 x10E3/uL. For the same compound, the “ALANINE AMINOTRANSFERASE” value [2] was 57 u/L, the ALBUMIN [2] was 4.17 G/DL and the “ALKALINE PHOSPHATASE” value [2] was 347.33 u/L. The “ASPARTATE AMINOTRANSFERASE” value [2] was 93.67 u/L, the “BLOOD UREA NITROGEN” value [2] was 15.67 mg/dL and the “CARBON DIOXIDE” value [2] was 27.17 mmol/L. The CHLORIDE [2] was 104.33 MEQ/L, the CHOLESTEROL [2] was 69.5 mg/dL and the “CREATINE PHOSPHOKINASE” value [2] was 317.17 u/L. For the same compound, the CREATININE [2] was 0.2 mg/dL, the GLUCOSE [2] was 162.33 mg/dL and the “LACTATE DEHYDROGENASE” value [2] was 408.67 u/L. It also gave an LIPASE [2] of 10.17 u/L, a PHOSPHORUS [2] of 11.08 mg/dL and a POTASSIUM [2] of 6.36 MEQ/L. For the same compound, the SODIUM [2] was 146.07 MEQ/L, the “TOTAL BILIRUBIN” value [2] was 0.22 mg/dL and the “TOTAL PROTEIN” value [2] was 5.92 G/DL. For the same compound, the “URIC ACID” value [2] was 1.47 mg/dL, the “ABSOLUTE BASOPHIL” value [3] was 0 CELLS/uL and the “ABSOLUTE EOSINOPHIL” value [3] was 127 CELLS/uL. For the same compound, the “ABSOLUTE LYMPHOCYTE” value [3] was 14701 CELLS/uL, the “ABSOLUTE MONOCYTE” value [3] was 340.67 CELLS/uL and the “ABSOLUTE SEGMENTED NEUTROPHIL” value [3] was 1864.67 CELLS/uL. The BASOPHIL [3] was 0%, the EOSINOPHIL [3] was 1% and the “ERYTHROCYTE COUNT” value [3] was 5.8 x10E6/uL. For the same compound, the HEMATOCRIT [3] was 35.57%, the HEMOGLOBIN [3] was 14.13 G/DL and the “LEUKOCYTE COUNT” value [3] was 17.03 x10E3/uL. For the same compound, the LYMPHOCYTE [3] was 86.33%, the “MEAN CORPUSCULAR HEMOGLOBIN” value [3] was 24.4 pg and the “MEAN CORPUSCULAR HEMOGLOBIN CONCENTRATION” value [3] was 39.77 G/DL. The “MEAN CORPUSCULAR VOLUME” value [3] was 61.43 fL, the MONOCYTE [3] was 2% and the NEUTROPHIL [3] was 10.67%. For the same compound, the “NUCLEATED RED BLOOD CELLS” value [3] was 0 /100WBC, the “PLATELET COUNT” value [3] was 1335 x10E3/uL and the “ALANINE AMINOTRANSFERASE” value [3] was 47.67 u/L. The ALBUMIN [3] was 3.9 G/DL, the “ALKALINE PHOSPHATASE” value [3] was 391.33 u/L and the “ASPARTATE AMINOTRANSFERASE” value [3] was 101 u/L. For the same compound, the “BLOOD UREA NITROGEN” value [3] was 54.33 mg/dL, the “CARBON DIOXIDE” value [3] was 31.33 mmol/L and the CHLORIDE [3] was 101.67 MEQ/L. The CHOLESTEROL [3] was 88.33 mg/dL, the “CREATINE PHOSPHOKINASE” value [3] was 732.33 u/L and the CREATININE [3] was 1.13 mg/dL. For the same compound, the GLUCOSE [3] was 142 mg/dL, the “LACTATE DEHYDROGENASE” value [3] was 354.67 u/L and the LIPASE [3] was 10 u/L. For the same compound, the PHOSPHORUS [3] was 10.1 mg/dL, the POTASSIUM [3] was 6.99 MEQ/L and the SODIUM [3] was 146.8 MEQ/L. For the same compound, the “TOTAL BILIRUBIN” value [3] was 0.2 mg/dL, the “TOTAL PROTEIN” value [3] was 5.93 G/DL and the “URIC ACID” value [3] was 0.2 mg/dL.
